Experimental data from US20190314379A1, “METHODS OF USING CANNABINOID CB2 RECEPTOR AGONIST COMPOSITIONS TO SUPPRESS AND PREVENT OPIOID TOLERANCE AND WITHDRAWAL IN A SUBJECT” (Indiana University Research and Technology Corporation, priority 2018, published 2019).

Columns and labels:
[1] = biological target: CB1 (Homo sapiens, UniProt P21554); conditions: at 100 μM; cited from earlier work
[2] = biological target: human CB2 (Homo sapiens, UniProt P34972); assay: On-cell western for receptor internalization, HEK hCB2; format: cell-based; parameters: expressed in transfected cells
[3] = biological target: T1, mouse CB2 receptors (Mus musculus, UniProt P47936); assay: Arrestin recruitment (PathHunter CHO K1CNR2, enzyme complementation); format: cell-based
T1 construct: expressed in transfected cells

[4] = test system: paclitaxel-induced cold allodynia; assay: Paclitaxel-induced cold allodynia (acetone); format: in vivo, mouse; conditions: for cold allodynia, chronic phase 1 treatment: 3 mg/kg per day i.p.×12 days
Description: In all studies, the experimenter was blinded to the treatment condition, and mice were randomly assigned to experimental conditions. Paclitaxel (4 mg/kg i.p.) was administered four times on alternate days (cumulative dose, 16 mg/kg i.p.) to induce neuropathic pain as described previously by our group (Deng et al., 2015). Control mice received an equal volume of cremophor-vehicle. Development of paclitaxel-induced allodynia was assessed on day 0, 4, 7, 11, and 14.
Effects of pharmacologic manipulations were assessed at 30 minutes after drug administration during the maintenance phase of paclitaxel-induced neuropathy (i.e., beginning day 18-20 after initial paclitaxel injection).
In experiments 2 and 3, pharmacologic manipulations were performed once daily for 12 consecutive days in each of the two phases of chronic treatment. Four days separated phase 1 and phase 2 chronic dosing in all studies comprising two phases of chronic dosing. Experiments 2 and 3 were performed concurrently using overlapping cohorts that were tested with a single vehicle (phase 1), vehicle (phase 2) group.
We then assessed the antiallodynic efficacy of chronic systemic administration of vehicle or morphine (10 mg/kg per day i.p.×12 days) administered during phase 2 in the same animals. Responsiveness to mechanical and cold stimulation was evaluated on treatment days 1, 4, 8, and 12 during phase 1 and on treatment days 16, 19, 23, and 27 during phase 2 (i.e., phase 2 started on day 16).
In experiment 4, we evaluated the impact of coadministration of morphine (10 mg/kg i.p.×12 days) with a submaximal dose of LY 2828360 (0.1 mg/kg per day i.p.×12 days) in WT and CB2 KO mice.
Response time (seconds) spent attending to (i.e., elevating, licking, biting, or shaking) the paw stimulated with acetone (Sigma-Aldrich) was measured in triplicate for each paw to assess cold allodynia as previously published. An acetone bubble (approximately 5 to 6 p.1) formed at the end of a blunt 1-ml syringe hub was gently applied to the plantar surface of the hind paw. Care was taken not to apply mechanical stimulation to the hind paw with the syringe itself. The total time the animal spent attending to the acetone-stimulated paw (i.e., elevation, shaking, or licking) was recorded over 1 minute after acetone application. Acetone was applied three times to each paw with a 3-minute interval between applications. Values for each animal were calculated as the mean of six determinations of acetone responsiveness derived from each mouse.

[5] = WT mice, 3 mg/kg per day i.p.×12 days after phase 1 morphine

Sequence of human CB2 (P34972 whole entry): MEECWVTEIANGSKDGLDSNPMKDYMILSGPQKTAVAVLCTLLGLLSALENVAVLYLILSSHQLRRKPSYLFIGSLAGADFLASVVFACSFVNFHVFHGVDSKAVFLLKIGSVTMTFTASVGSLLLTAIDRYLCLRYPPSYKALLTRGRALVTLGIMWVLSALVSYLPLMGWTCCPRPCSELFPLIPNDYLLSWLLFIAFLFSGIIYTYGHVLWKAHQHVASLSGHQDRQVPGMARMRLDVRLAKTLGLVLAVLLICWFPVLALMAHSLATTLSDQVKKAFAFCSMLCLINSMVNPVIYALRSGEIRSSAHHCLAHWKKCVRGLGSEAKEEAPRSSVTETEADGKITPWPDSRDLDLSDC
T1 sequence (P47936 whole entry): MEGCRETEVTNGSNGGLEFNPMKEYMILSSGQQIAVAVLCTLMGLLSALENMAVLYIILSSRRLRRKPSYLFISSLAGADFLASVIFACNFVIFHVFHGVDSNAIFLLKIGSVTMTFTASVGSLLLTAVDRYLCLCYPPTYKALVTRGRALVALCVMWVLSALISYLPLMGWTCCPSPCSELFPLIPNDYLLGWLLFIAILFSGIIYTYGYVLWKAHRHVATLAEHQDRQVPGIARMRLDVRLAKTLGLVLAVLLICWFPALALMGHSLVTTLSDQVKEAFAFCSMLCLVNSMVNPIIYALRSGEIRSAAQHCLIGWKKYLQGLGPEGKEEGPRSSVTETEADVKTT
Sequence of CB1 (P21554 whole entry, species assumed): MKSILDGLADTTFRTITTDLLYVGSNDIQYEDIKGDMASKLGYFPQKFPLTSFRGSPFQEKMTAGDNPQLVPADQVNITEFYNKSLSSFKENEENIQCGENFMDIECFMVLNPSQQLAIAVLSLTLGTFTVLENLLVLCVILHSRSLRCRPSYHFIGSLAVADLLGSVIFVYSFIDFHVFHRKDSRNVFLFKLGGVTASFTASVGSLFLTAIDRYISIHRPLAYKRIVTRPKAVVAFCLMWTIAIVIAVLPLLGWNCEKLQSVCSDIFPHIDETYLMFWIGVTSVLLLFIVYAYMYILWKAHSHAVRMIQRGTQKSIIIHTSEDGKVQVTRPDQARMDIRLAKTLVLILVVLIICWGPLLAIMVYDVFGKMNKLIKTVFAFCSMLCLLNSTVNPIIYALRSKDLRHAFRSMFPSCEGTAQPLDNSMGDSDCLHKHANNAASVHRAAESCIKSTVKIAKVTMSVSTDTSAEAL

In the case of `Cc1nc(N2CCN(C)CC2)c2nc(-c3ccccc3Cl)n(C3CCOCC3)c2n1` [LY2828360, 8-(2-chlorophenyl)-2-methyl-6-(4-methylpiperazin-1-yl)-9-(tetrahydro-2H-pyran-4-yl)-9H-purine], the “maximal stimulation of CB1” value [1] is listed as 15%, the receptor internalization ([2]; HEK hCB2) is listed as “failed to internalize the receptor” and the Emax ([2]; human CB2, 90 mins incubation, read-out: Internalization Emax) is listed as 10.2%. For the same compound, the arrestin recruitment ([3]; CHO cells expressing mCB2, 90-minute drug incubation) was “failed to do so”, the Emax ([3]; mouse CB2, 90 mins incubation, read-out: Arrestin Emax) was 97.9% and the “time for responsiveness to cold stimulation to return to baseline” value ([4]; 3 mg/kg i.p. acute) was 3 days. For the same compound, the “cold allodynia, chronic phase 1 treatment” value ([4]; CB2KO mice) was “failed to suppress”, the “cold responsiveness, phase 2 treatment of morphine-tolerant mice” value ([4]; CB2KO mice, 3 mg/kg per day i.p.×12 days after phase 1 morphine) was “did not alter responsiveness to mechanical or cold stimulation” and the “cold allodynia, coadministration with morphine” value ([4]; CB2KO mice, LY2828360 0.1 mg/kg with morphine 10 mg/kg per day×12 days) was “sustained antiallodynic efficacy was absent”. The “development of tolerance to antiallodynic effect of phase 2 morphine, cold” value ([4]; CB2KO mice, LY2828360 phase 1, morphine phase 2) was “did not block the development of morphine tolerance”, the “paclitaxel-induced cold allodynia, high dose” value ([4]; WT mice, 3 mg/kg i.p. acute) was “fully reversed paclitaxel-induced allodynia and normalized responses to pre-paclitaxel baseline levels” and the “cold allodynia, chronic phase 1 treatment” value ([4]; WT mice) was “markedly suppressed paclitaxel-induced mechanical and cold allodynia throughout the observation interval”. The “cold allodynia, phase 2 treatment of morphine-tolerant mice” value [4, 5] was “fully reversed paclitaxel-induced allodynia and normalized responsiveness to pre-paclitaxel baseline levels”, the “tolerance to phase 2 treatment, cold” value [4, 5] was “tolerance did not develop” and the “cold allodynia, coadministration with morphine” value ([4]; WT mice, LY2828360 0.1 mg/kg per day i.p.×12 days with morphine 10 mg/kg per day×12 days) was “normalized cold responsiveness on days 1 and 4”. The “development of morphine tolerance under coadministration, cold” value ([4]; WT mice, LY2828360 0.1 mg/kg with morphine 10 mg/kg per day×12 days) was “morphine tolerance failed to develop”, the “development of tolerance to antiallodynic effect of phase 2 morphine, cold” value ([4]; WT mice, LY2828360 3 mg/kg per day×12 days phase 1, morphine 10 mg/kg×12 days phase 2) was “prevented the development of morphine tolerance” and the “paclitaxel-induced cold allodynia, acute dose response” value ([4]; WT mice, acute systemic (i.p.), dose-dependent) was “suppressed”. For the same compound, the “cold allodynia at low doses vs cremophor-vehicle controls” value ([4]; WT mice, doses lower than 0.3 mg/kg i.p.) was “neuropathic pain was prominent” and the “stability of antiallodynic efficacy (tolerance), cold” value ([4]; WT mice, phase 1, 3 mg/kg per day i.p.×12 days) was “stable throughout phase 1 treatment”.
